What all share (experiment): relative viability (nuclei count vs DMSO), 5 days (fraction); higher = more cells survive
Compound in the assay “JZL-184 + Palbociclib”: C1CN(CCC1C(C2=CC3=C(C=C2)OCO3)(C4=CC5=C(C=C4)OCO5)O)C(=O)OC6=CC=C(C=C6)[N+](=O)[O-] [JZL-184] + CC(=O)c1c(C)c2cnc(Nc3ccc(N4CCNCC4)cn3)nc2n(C2CCCC2)c1=O [Palbociclib] (partner 0.5 µM)
The method, boiled down:
(§1)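 Values are medians from duplicate plates. Each reflects relative viability, defined as the nuclei count of treated wells over that of vehicle wells. Lung cancer cell lines in 1536-well plates were pin-tool dosed one day after seeding with one drug alone or with a fixed anchor-drug dose plus five library-drug doses (not always all listed) in √10 steps, then fixed, stained and imaged at 4× after 5 days.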

Compound in the assay “JZL-184 + Lapatinib”: C1CN(CCC1C(C2=CC3=C(C=C2)OCO3)(C4=CC5=C(C=C4)OCO5)O)C(=O)OC6=CC=C(C=C6)[N+](=O)[O-] [JZL-184] + CS(=O)(=O)CCNCc1ccc(-c2ccc3ncnc(Nc4ccc(OCc5cccc(F)c5)c(Cl)c4)c3c2)o1 [Lapatinib] (partner 2 µM)
The procedure, abridged:
as §1

Compound in the assay “JZL-184 + Pictilisib”: C1CN(CCC1C(C2=CC3=C(C=C2)OCO3)(C4=CC5=C(C=C4)OCO5)O)C(=O)OC6=CC=C(C=C6)[N+](=O)[O-] [JZL-184] + CS(=O)(=O)N1CCN(Cc2cc3nc(-c4cccc5[nH]ncc45)nc(N4CCOCC4)c3s2)CC1 [Pictilisib] (partner 1 µM)
The method, boiled down:
as §1

Compound in the assay “JZL-184 + Trametinib”: C1CN(CCC1C(C2=CC3=C(C=C2)OCO3)(C4=CC5=C(C=C4)OCO5)O)C(=O)OC6=CC=C(C=C6)[N+](=O)[O-] [JZL-184] + CC(=O)Nc1cccc(-n2c(=O)n(C3CC3)c(=O)c3c(Nc4ccc(I)cc4F)n(C)c(=O)c(C)c32)c1 [Trametinib] (partner 0.02 µM)
The procedure, abridged:
as §1

Compound in the assay “JZL-184 + Luminespib”: C1CN(CCC1C(C2=CC3=C(C=C2)OCO3)(C4=CC5=C(C=C4)OCO5)O)C(=O)OC6=CC=C(C=C6)[N+](=O)[O-] [JZL-184] + CCNC(=O)c1noc(-c2cc(C(C)C)c(O)cc2O)c1-c1ccc(CN2CCOCC2)cc1 [Luminespib] (partner 0.01 µM)
The procedure, abridged: as §1

On to LOU-NH91, for which the relative viability amounted to 0.524 with JZL-184 + Palbociclib (first compound 0.04 µM); 0.509 in the assay with JZL-184 + Palbociclib (first compound 0.4 µM); 0.558 with JZL-184 + Palbociclib (first compound 1.265 µM); 0.448 with JZL-184 + Palbociclib (first compound 4 µM); 0.783 with JZL-184 + Lapatinib (first compound 0.04 µM); 0.741 with JZL-184 + Lapatinib (first compound 0.4 µM). Moreover, the relative viability in the assay with JZL-184 + Lapatinib (first compound 1.265 µM) stood at 0.845; in the assay with JZL-184 + Lapatinib (first compound 4 µM), 0.727; with JZL-184 + Pictilisib (first compound 0.04 µM) it was 0.535; with JZL-184 + Pictilisib (first compound 0.4 µM) it was 0.471; in the assay with JZL-184 + Pictilisib (first compound 1.265 µM), 0.514; in the assay with JZL-184 + Pictilisib (first compound 4 µM), 0.532. Also, the relative viability with JZL-184 + Trametinib (first compound 0.04 µM) was determined as 0.793; with JZL-184 + Trametinib (first compound 0.4 µM), 0.754; with JZL-184 + Trametinib (first compound 1.265 µM), 0.848; in the assay with JZL-184 + Trametinib (first compound 4 µM), 0.754; in the assay with JZL-184 + Luminespib (first compound 0.04 µM), 0.26; with JZL-184 + Luminespib (first compound 0.4 µM), 0.322. Moreover, the relative viability with JZL-184 + Luminespib (first compound 1.265 µM) came to 0.32; in the assay with JZL-184 + Luminespib (first compound 4 µM), 0.387.
LU99A: the relative viability with JZL-184 + Palbociclib (first compound 0.04 µM) was determined as 0.455; with JZL-184 + Palbociclib (first compound 0.4 µM), 0.36; with JZL-184 + Palbociclib (first compound 1.265 µM) it was 0.471; with JZL-184 + Palbociclib (first compound 4 µM), 0.42; with JZL-184 + Lapatinib (first compound 0.04 µM), 1.21; with JZL-184 + Lapatinib (first compound 0.4 µM), 0.966. In addition, the relative viability in the assay with JZL-184 + Lapatinib (first compound 1.265 µM) stood at 1.22; with JZL-184 + Lapatinib (first compound 4 µM), 0.963; with JZL-184 + Pictilisib (first compound 0.04 µM) it was 0.353; in the assay with JZL-184 + Pictilisib (first compound 0.4 µM), 0.315; in the assay with JZL-184 + Pictilisib (first compound 1.265 µM), 0.329; in the assay with JZL-184 + Pictilisib (first compound 4 µM) it was 0.313. Besides, the relative viability was found to be 0.574 with JZL-184 + Trametinib (first compound 0.04 µM); 0.469 with JZL-184 + Trametinib (first compound 0.4 µM); 0.607 with JZL-184 + Trametinib (first compound 1.265 µM); 0.638 in the assay with JZL-184 + Trametinib (first compound 4 µM); 0.279 with JZL-184 + Luminespib (first compound 0.04 µM); 0.224 with JZL-184 + Luminespib (first compound 0.4 µM). Moreover, the relative viability with JZL-184 + Luminespib (first compound 1.265 µM) worked out at 0.283; in the assay with JZL-184 + Luminespib (first compound 4 µM) it was 0.321.
As to LXF-289, the relative viability with JZL-184 + Palbociclib (first compound 0.04 µM) was found to be 0.693; with JZL-184 + Palbociclib (first compound 0.4 µM) it was 0.564; with JZL-184 + Palbociclib (first compound 1.265 µM), 0.572; with JZL-184 + Palbociclib (first compound 4 µM), 0.595; in the assay with JZL-184 + Lapatinib (first compound 0.04 µM) it was 0.92; with JZL-184 + Lapatinib (first compound 0.4 µM), 0.866. The relative viability with JZL-184 + Lapatinib (first compound 1.265 µM) was 0.924; with JZL-184 + Lapatinib (first compound 4 µM) it was 0.852; with JZL-184 + Pictilisib (first compound 0.04 µM), 0.865; in the assay with JZL-184 + Pictilisib (first compound 0.4 µM), 0.71; with JZL-184 + Pictilisib (first compound 1.265 µM) it was 0.842; with JZL-184 + Pictilisib (first compound 4 µM), 0.779. Moreover, the relative viability in the assay with JZL-184 + Trametinib (first compound 0.04 µM) stood at 0.789; in the assay with JZL-184 + Trametinib (first compound 0.4 µM) it was 0.604; with JZL-184 + Trametinib (first compound 1.265 µM), 0.668; in the assay with JZL-184 + Trametinib (first compound 4 µM), 0.668; with JZL-184 + Luminespib (first compound 0.04 µM), 0.917; with JZL-184 + Luminespib (first compound 0.4 µM), 0.57. The relative viability with JZL-184 + Luminespib (first compound 1.265 µM) turned out to be 0.693; in the assay with JZL-184 + Luminespib (first compound 4 µM), 0.618.
For NCI-H23, the relative viability with JZL-184 + Palbociclib (first compound 0.04 µM) was determined as 0.594; with JZL-184 + Palbociclib (first compound 1.265 µM), 0.484; in the assay with JZL-184 + Palbociclib (first compound 4 µM), 0.486; with JZL-184 + Lapatinib (first compound 0.04 µM), 1.39; in the assay with JZL-184 + Lapatinib (first compound 0.4 µM) it was 0.969; with JZL-184 + Lapatinib (first compound 1.265 µM), 1.26. Moreover, the relative viability in the assay with JZL-184 + Lapatinib (first compound 4 µM) is 1.07; with JZL-184 + Pictilisib (first compound 0.04 µM), 0.561; with JZL-184 + Pictilisib (first compound 0.4 µM) it was 0.432; with JZL-184 + Pictilisib (first compound 1.265 µM), 0.538; in the assay with JZL-184 + Pictilisib (first compound 4 µM), 0.492; with JZL-184 + Trametinib (first compound 0.04 µM), 0.409. The relative viability in the assay with JZL-184 + Trametinib (first compound 1.265 µM) was 0.358; with JZL-184 + Trametinib (first compound 4 µM) it was 0.392; in the assay with JZL-184 + Luminespib (first compound 0.04 µM), 0.21; with JZL-184 + Luminespib (first compound 1.265 µM), 0.194; with JZL-184 + Luminespib (first compound 4 µM), 0.21.
In the case of NCI-H441, the relative viability was 0.207 with JZL-184 + Palbociclib (first compound 0.04 µM); 0.229 in the assay with JZL-184 + Palbociclib (first compound 0.4 µM); 0.238 with JZL-184 + Palbociclib (first compound 1.265 µM); 0.236 in the assay with JZL-184 + Palbociclib (first compound 4 µM); 0.631 in the assay with JZL-184 + Pictilisib (first compound 0.04 µM); 0.409 with JZL-184 + Pictilisib (first compound 0.4 µM). In addition, the relative viability in the assay with JZL-184 + Pictilisib (first compound 1.265 µM) amounted to 0.607; with JZL-184 + Pictilisib (first compound 4 µM), 0.423; in the assay with JZL-184 + Trametinib (first compound 0.04 µM), 0.473; with JZL-184 + Trametinib (first compound 0.4 µM), 0.436; with JZL-184 + Trametinib (first compound 1.265 µM), 0.49; with JZL-184 + Trametinib (first compound 4 µM), 0.487. Moreover, the relative viability with JZL-184 + Luminespib (first compound 0.04 µM) turned out to be 0.442; with JZL-184 + Luminespib (first compound 0.4 µM) it was 0.325; with JZL-184 + Luminespib (first compound 1.265 µM) it was 0.365; in the assay with JZL-184 + Luminespib (first compound 4 µM), 0.347.
As for NCI-H522, the relative viability with JZL-184 + Palbociclib (first compound 0.04 µM) came out at 1.23; with JZL-184 + Palbociclib (first compound 0.4 µM), 0.936; with JZL-184 + Palbociclib (first compound 1.265 µM) it was 1.13; with JZL-184 + Palbociclib (first compound 4 µM), 0.903; with JZL-184 + Trametinib (first compound 0.04 µM), 0.856; with JZL-184 + Trametinib (first compound 0.4 µM) it was 0.758. Also, the relative viability with JZL-184 + Trametinib (first compound 1.265 µM) was 0.791; in the assay with JZL-184 + Trametinib (first compound 4 µM), 0.802; with JZL-184 + Luminespib (first compound 0.04 µM), 1.29; in the assay with JZL-184 + Luminespib (first compound 0.4 µM) it was 1.14; with JZL-184 + Luminespib (first compound 1.265 µM) it was 1.18; with JZL-184 + Luminespib (first compound 4 µM) it was 1.29.
Take NCI-H596: the relative viability with JZL-184 + Lapatinib (first compound 0.04 µM) amounted to 1.12; with JZL-184 + Lapatinib (first compound 0.4 µM), 0.948; with JZL-184 + Lapatinib (first compound 1.265 µM), 1.04; with JZL-184 + Lapatinib (first compound 4 µM), 0.992; with JZL-184 + Pictilisib (first compound 0.04 µM), 0.397; in the assay with JZL-184 + Pictilisib (first compound 0.4 µM), 0.393. The relative viability with JZL-184 + Pictilisib (first compound 1.265 µM) was determined as 0.429; with JZL-184 + Pictilisib (first compound 4 µM) it was 0.356; with JZL-184 + Trametinib (first compound 0.04 µM), 0.86; in the assay with JZL-184 + Trametinib (first compound 0.4 µM) it was 0.76; with JZL-184 + Trametinib (first compound 1.265 µM) it was 0.801; with JZL-184 + Trametinib (first compound 4 µM) it was 0.767. For the same cell line, the relative viability in the assay with JZL-184 + Luminespib (first compound 0.04 µM) amounted to 1.23; with JZL-184 + Luminespib (first compound 0.4 µM) it was 1.13; with JZL-184 + Luminespib (first compound 1.265 µM) it was 0.996; with JZL-184 + Luminespib (first compound 4 µM), 1.09.
As for NCI-H2342, the relative viability was determined as 0.563 in the assay with JZL-184 + Palbociclib (first compound 0.04 µM); 0.535 in the assay with JZL-184 + Palbociclib (first compound 0.4 µM); 0.522 with JZL-184 + Palbociclib (first compound 1.265 µM); 0.529 with JZL-184 + Palbociclib (first compound 4 µM); 0.837 with JZL-184 + Trametinib (first compound 0.04 µM); 0.785 with JZL-184 + Trametinib (first compound 0.4 µM). The relative viability with JZL-184 + Trametinib (first compound 1.265 µM) is 0.972; with JZL-184 + Trametinib (first compound 4 µM), 0.756; with JZL-184 + Luminespib (first compound 0.04 µM), 0.687; in the assay with JZL-184 + Luminespib (first compound 0.4 µM), 0.61; in the assay with JZL-184 + Luminespib (first compound 1.265 µM), 0.683; in the assay with JZL-184 + Luminespib (first compound 4 µM), 0.783.
On to SW 900, for which the relative viability with JZL-184 + Palbociclib (first compound 0.04 µM) was 0.548; in the assay with JZL-184 + Palbociclib (first compound 0.4 µM) it was 0.513; with JZL-184 + Palbociclib (first compound 1.265 µM), 0.558; with JZL-184 + Palbociclib (first compound 4 µM) it was 0.521; with JZL-184 + Trametinib (first compound 0.04 µM), 0.74; with JZL-184 + Trametinib (first compound 0.4 µM), 0.783. For the same cell line, the relative viability with JZL-184 + Trametinib (first compound 1.265 µM) was 0.864; with JZL-184 + Trametinib (first compound 4 µM), 0.693; with JZL-184 + Luminespib (first compound 0.04 µM), 0.16; in the assay with JZL-184 + Luminespib (first compound 0.4 µM), 0.18; in the assay with JZL-184 + Luminespib (first compound 1.265 µM), 0.18; in the assay with JZL-184 + Luminespib (first compound 4 µM), 0.196.
